{
  "source": "patent US5334761A",
  "about": "“Cationic lipids” (Life Technologies, Inc., priority 1992, dated 1994)",
  "key": {"[1]": {"assay": "% protein (toxicity estimate, Bradford) after transfection", "assay_type": "cell-based", "conditions": "monkey, cos-7 cells; 12 μg lipid; 1 μg pSV2CAT; 6 h DMEM", "method": "(§1) A one-to-one mixture (by weight) of the desired lipid and dioleylphosphatidyl ethanolamine was prepared in CHCl3. The CHCl3 was removed on the rotary evaporator to obtain a thin film of lipid mixture. The mixture was hydrated with enough water to obtain approximately 1.25 mg of lipid per ml of solution. The solution was passed through a microfluidizer twice and diluted to 1 mg/ml. The liposome formulation was then filtered through a 0.2 μ filter. Compound 8 was also formulated without DOPE either by sonication at 1 mg/ml in water or by dissolving a dried lipid film with ethanol and then adding water to give a final concentration of 2.5 mg/ml. Ethanol was 10% of that volume. In some instances, this was further diluted with water to 1 mg/ml, 4% ethanol.\n(§2) Baby hamster kidney (BHK-21) , COS-7, HeLa-S3 cells, and normal human fibroblasts isolated from newborn foreskin dermis were grown in Dulbecco's-modified Eagle's medium (DMEM) containing 10% fetal bovine serum (FBS), 2 mM L-glutamine (gln), 0.1 mM MEM nonessential amino acids (NEAA), 100 U/ml penicillin, and 100 μg/ml streptomycin. […]\n(§3) The \"% protein\" column indicates the relative amount of protein in the sample tested for CAT activity and therefore provides a way to estimate toxicity of the compounds being tested. […] Protein was measured using a commercially available Bradford protein assay (BioRad Laboratories, Richmond, Ca.). […]"}, "[2]": {"tested_on": "NIH-3T3 cells", "assay": "% protein (toxicity estimate, Bradford) after transfection", "assay_type": "cell-based, mouse", "method": "as §1, §2, §3"}, "[3]": {"assay": "% protein (toxicity estimate, Bradford) after transfection", "assay_type": "cell-based, human", "conditions": "human, jurkat cells, 15 μg lipid; 2 μg pCMVCAT; 6 h RPMI1640", "method": "as §1\n(§4) Baby hamster kidney (BHK-21) , COS-7, HeLa-S3 cells, and normal human fibroblasts isolated from newborn foreskin dermis were grown in Dulbecco's-modified Eagle's medium (DMEM) containing 10% fetal bovine serum (FBS), 2 mM L-glutamine (gln), 0.1 mM MEM nonessential amino acids (NEAA), 100 U/ml penicillin, and 100 μg/ml streptomycin. NIH-3T3 cells were grown in DMEM containing 10% calf serum (CS), 2 mMgln, 0.1 mM NEAA 100 U/ml penicillin, and 100 μg/ml streptomycin. PC12 cells were grown in DMEMcontaining 10% horse serum, 5% FBS, 2 mM gln, 0 1 mMNEAA, 100 U/ml penicillin and 100 μ/ml streptomycin. Jurkat cells (human lymphoid cell line) were grown in RPMI-1640 supplemented with 10% FBS, 2mML-glutamine, 100 U/ml penicillin, and 100 μg/ml streptomycin. Human keratinocytes were isolated from newborn foreskin epidermis and cultured in Keratinocyte Growth Medium (Clonetics, San Diego, Ca.). All cell lines were maintained in a humidified incubator with a 5% CO2 atmosphere at 37° C.\n(§5) For transient nuclear expression of pSV2CAT or pCMVCAT in Jurkat cells, cells were washed with Opti-MEM I or serum-free RPMI 1640 containing 2 mM gln and plated in six-well plates at a density of 3×10^6 cells per well in 0.8 ml Opti-MEM I or RPMI 1640. For each transfection, 5 μg pSV2CAT DNA or 2 μg pCMVCAT DNA was diluted in 100 μl Opti-MEM I. Lipids were diluted separately in another 100 μl aliquot of Opti-MEMI. The two solutions were then mixed in a polystyrene tube and incubated for 10-15 min at room temperature. The DNA-liposome complex was added to the cell suspensions and incubated 6 hours at 37° C., after which 4 ml growth medium were added per well (RPMI-1640; 10% FBS). Phorbol myristate acetate (Sigma Chemical Co., St. Louis, Mo.) and phytohemagglutinin (Sigma) were also added to a final concentration of 50 ng/ml and 1 μg/ml, respectively, to activate the cells. Cells were harvested at approximately 48 hours post-transfection by centrifugation. Cell lysates were prepared by resuspending cell pellets at 0° C. in 0.1 M Tris-HC1 pH 8.0 containing 0.1% Triton X-100 and freeze-thawing once. Cell lysates were cleared by centrifugation and assayed for CAT activity.\n(§6) The \"% protein\" column indicates the relative amount of protein in the sample tested for CAT activity and therefore provides a way to estimate toxicity of the compounds being tested. The \"CAT Activity\" column indicates the relative transfection effectiveness of the lipid formulation in the various cell lines. The control sample was a cell culture grown under similar conditions as those that were transfected, but with no DNA or cationic lipid added. Protein was measured using a commercially available Bradford protein assay (BioRad Laboratories, Richmond, Ca.).\n(§7) Jurkat cells (3 × 10^6 cells) were transfected in OPTIMEM with\n(§8) μg of pSV2CAT DNA for 6 hours.\n(§9) DNA-lipid complexes were made in OPTIMEM. Jurkat cells (3 × 10^\n(§10) cells) were transfected in RPMI1640 with 2 μg of pCMVCAT DNA for 6"}, "[4]": {"tested_on": "Jurkat cells", "assay": "% protein (toxicity estimate, Bradford) after transfection", "assay_type": "cell-based, human", "conditions": "Jurkat", "method": "as §1, §4, §5, §6, §7, §8, §9, §10"}},
  "note": "Structures can show the parent of a compound that is named as a salt.",
  "data": [
    {"smiles": "CCCCCCCC/C=C\\CCCCCCCCOCC(C[N+](C)(C)CCNC(=O)C(CCCNCCCN)NCCCN)OCCCCCCCC/C=C\\CCCCCCCC", "note": "(stereo not shown) [Compound 8, 1-Propanaminium, N-[2-[[2,5-bis[(3-amino]-1-oxopentyl]amino]ethyl]-n,n-dimethyl-2,3,-bis(9-octadecenyloxy)-, tetra(trifluoroacetate) salt]", "values": [
      {"measurement": "viability at 6 h", "setting": "[1]", "result": 99.1, "unit": "%"},
      {"measurement": "toxicity (in words)", "setting": "[2]", "result": "minimal toxicity"},
      {"measurement": "viability at 6 h", "setting": "[3]", "result": 47, "unit": "%"},
      {"measurement": "toxicity (in words)", "setting": "[4]", "result": "minimal toxicity"}
    ]}
  ]
}
